For experiment [1], the target named is T1, renin (Homo sapiens, UniProt P00797).
T1 sequence (P00797 67-406): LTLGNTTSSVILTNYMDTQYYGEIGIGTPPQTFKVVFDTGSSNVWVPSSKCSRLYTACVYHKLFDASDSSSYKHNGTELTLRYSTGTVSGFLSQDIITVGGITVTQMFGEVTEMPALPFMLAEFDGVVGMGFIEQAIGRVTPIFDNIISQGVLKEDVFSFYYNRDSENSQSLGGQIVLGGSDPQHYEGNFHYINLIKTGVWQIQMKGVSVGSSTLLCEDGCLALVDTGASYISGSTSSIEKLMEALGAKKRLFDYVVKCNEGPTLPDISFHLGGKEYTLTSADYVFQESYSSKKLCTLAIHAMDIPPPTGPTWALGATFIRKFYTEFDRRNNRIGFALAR
The experiment in a line: Human renin-sheep renin substrate reaction system in vitro. It is filed as biochemical. To be noted: purified human renin, semipurified sheep renin substrate, pH 7.4, 15 minutes at 37°C, angiotensin I by radioimmunoassay; read-out: IC50 molar concentration. The procedure: To a mixture containing 200 µl of a 125 mM pyrophosphate buffer (pH 7.4), 25 µl of a 20 mM aqueous solution of L-phenylalanyl-L-alanyl-L-prolin as an angiotensin cnverting enzyme inhibitor, 50 µ01 of semipurified sheep renin substrate (2000 ng angiotensin I/ml), 50 µl of dimethyl sulfoxide solution of an amino acid compound of the present invention and 150 µl of deionized water was added 25 µl of purified human renin (20-30 ng angiotensin I/ml/hr. The mixture was incubated for 15 minutes on a water bath at 37°C, and the reaction mixture was allowed to stand for 5 minutes on a water bath at 100°C to stop the reaction. After cooling, 200 µl of the solution were taken up and the amount of angiotensin I produced by the addition of renin was determined by radiommunoassay. The inhibitory effect was calculated by the following equation.
As a control, the same procedure as above was carried out by using 50 µl of dimethyl sulfoxide alone in place of the 50 µl of dimethyl sulfoxide solution containing an amino acid compound of the present invention.

Experiment [2] deals with T1, renin. The experiment in a line: Renin inhibitory effect in a human high renin plasma. Further details: from tissue; host or cells: human high renin plasma. It is filed as biochemical. To be noted: pH 7, 60 minutes at 37°C, angiotensin I by radioimmunoassay, read-out: IC50 (molar concentration). The procedure: A mixture of 350 µl of a 0.5 M phosphate buffer containing 14 mM EDTA 2Na and a 0.3% neomycin sulfate, which was adjusted to the pH of 7, 50 µl of a 20 mM an aqueous solution of L-phenylalanyl-L-alanyl-L-prolin as an angiotensin converting enzyme inhibitor and 100 µl of dimethyl sulfoxide solution containing an amino acid compound of the present invention was added to 500 µl of human high renin plasma, and 200 µl of the mixture was incubated at 4°C in an ice bath, and remaining mixture (800 µl) was incubated for 60 minutes at 37°C in a water bath. A 200 µl sample was withdrawn from the incubated mixture, chilled immediately in an ice bath, and the amount (A) of angiotensin I produced was determined by radioimmunoassay.
Also, the amount (B) of angiotensin I produced in the incubated mixture at 4°C in an ice bath was determined by radioimmunoassy.
As a control, the same procedure as above was carried out by using 100 µl of dimethyl sulfoxide alone in place of the 100µl of dimethyl sulfoxide solution containing an amino acid compound of the present invention.
The renin inhibitory effect in human plasa was calculated by taking the amount of angiotensin I - (A) from the amount of angiotensin I (B). The inhibotory effect was calculated by the following equation. [formula]

The subject of the next experiment is common marmoset. The experiment in a line: Hypotensive effect in marmoset. It is filed as in vivo. To be noted: orally 30 mg/kg, conscious male marmosets in high renin state (furosemide), Control 103.5. On the procedure:
The experiment was carrried out by using common marmoset as described in K.G. Hofbauer et al., Clinical and Experimental hypertension, Vol. A5, Nos. 7 & 8 (1983), pages 1237-1247.
Furosemide was orally administered three times to common marmoset at 15 mg per kilogram per day every other day to create a high renin state. Blood pressure of consious marmoset was measured 2 days after the last administration of furosemide.
Three consious male marmosets marmosets weighing 305-345 g were fixed. Mean blood pressure at tail artery was recorded on pretismograph instrument. The amino acid compound, of the present invention isopropyl (2RS. 3S)-3-{N-[2-(1-naphthylmethyl)-3-(morpholinocarbonylpropionyl]-L-histidyl}amino-2-hydroxy-5-methylhexanoate and administered orally at 30 mg/kg by using a catheter. The results obtained are shown below.

Turning to `CNC(=O)C(O)[C@H](CC(C)C)NC(=O)[C@H](Cc1c[nH]cn1)NC(=O)C(CC(=O)N1CCOCC1)Cc1cccc2ccccc12` (mixture of isomers) [Example 3, (2RS, 3S)-3-{N-[2-(1-Naphthylmethyl)-3-(morpholinocarbonyl)propionyl]-L-histidyl}amino-2-hydroxy-5-methylhexanoylmethylamide], the IC50 on renin [1] came out at 0.34 µM.
For the molecule `CNC(=O)C(O)[C@H](CC(C)C)NC(=O)[C@H](Cc1c[nH]cn1)NC(=O)C(CC(=O)N1CCCCC1)Cc1cccc2ccccc12` (mixture of isomers) [Example 7, (2RS, 3S)-3-{N-[2-(1-Naphthylmethyl)-3-(piperidinocarbonyl)propionyl]-L-histidyl}amino-2-hydroxy-5-methylhexanoylmethylamide], the IC50 amounted to 0.69 µM on renin [1] and 5.2 µM at renin [2].
Turning to `CCNC(=O)CC(Cc1cccc2ccccc12)C(=O)N[C@@H](Cc1c[nH]cn1)C(=O)N[C@@H](CC(C)C)C(O)C(=O)OC` (mixture of isomers) [Example 10, Methyl (2RS, 3S)-3-{N-[2-(1-naphthylmethyl)-3-(ethylcarbamoyl)propionyl]-L-histidyl}amino-2-hydroxy-5-methylhexanoate], the IC50 on renin [1] is 0.63 µM.
As for `CC(C)C[C@H](NC(=O)[C@H](Cc1cnc[nH]1)NC(=O)C(CC(=O)N1CCOCC1)Cc1cccc2ccccc12)C(O)C(=O)OC(C)C` (stereo partly drawn) [Example 1], the Mean blood pressure with common marmoset (0.5 hours after administration) is on record as 88.7 mmHg; in the experiment on common marmoset (1 hour after administration), 85.6 mmHg; in the experiment with common marmoset (2 hours after administration), 87.2 mmHg; in the experiment on common marmoset (3 hours after administration), 89.3 mmHg; in the experiment on common marmoset (5 hours after administration), 92.4 mmHg; with common marmoset (7 hours after administration), 92.3 mmHg. Besides, the Mean blood pressure in the experiment with common marmoset (9 hours after administration) came out at 92.8 mmHg; in the experiment with common marmoset (24 hours after administration) it was 101.9 mmHg.
Consider `CC(C)C[C@H](NC(=O)[C@H](Cc1c[nH]cn1)NC(=O)C(CC(=O)N1CCCCC1)Cc1cccc2ccccc12)C(O)C(=O)OC(C)C` (stereo partly drawn) [Example 5, lsopropyl (2RS, 3S)-3-{N-[2-(1-Naphthytmethyl)-3-(piperidinocarbonyl)propionyl}-t-hisfidyl)amino-2-hydroxy-5-methylhexanoate], for which the IC50 worked out at 0.028 µM at renin [1] and 0.088 µM on renin [2].
The like results for `COC(=O)C(O)[C@H](CC(C)C)NC(=O)[C@H](Cc1c[nH]cn1)NC(=O)C(CC(=O)N1CCCC1)Cc1cccc2ccccc12` (stereo partly drawn) [Example 8, Methyl (2RS, 3S)-3-{N-[2-(1-naphthylmethyl)-3-(pyrroiidinocarbonyl)propionyl]-L-histidyl}amino-2-hydroxy-5-methylhexanoate] were, in that order, 0.069 µM and 0.062 µM.
For `COC(=O)C[C@H](O)[C@H](CC(C)C)NC(=O)[C@H](Cc1c[nH]cn1)NC(=O)C(CC(=O)N1CCOCC1)Cc1cccc2ccccc12` (stereo partly drawn) [Example 11, Methyl N-[2-(1-naphthylmethyl)-3-(morpholinocarbonyl)propionyl]-L-histidyistatinate], the IC50 on renin [1] amounted to 0.21 µM.
The same measure, in the same setting: next, `CC(C)CCNC(=O)C[C@H](O)[C@H](CC(C)C)NC(=O)[C@H](Cc1c[nH]cn1)NC(=O)C(CC(=O)N1CCOCC1)Cc1cccc2ccccc12` (stereo partly drawn) [Example 13, N-[2-(1-Naphthyfmethyl)-3-(morpholinocarbouyl)-propionyl]-L-histidyl-statylisoamylamide]: 0.036 µM.

(Values after EP0200406A2, “Novel amino acid derivatives” (Kissei Pharmaceutical Co Ltd, priority 1985, dated 1986).)
